Data taken from paper PMC7556269, “Metabolic Profiling of a CB2 Agonist, AM9338, Using LC-MS and Microcoil-NMR: Identification of a Novel Dihydroxy Adamantyl Metabolite” (Frontiers in Pharmacology, 2020).
Where two headings read alike, the source gives them in different places.

Tests used:
hCB2 = hCB2 (Homo sapiens, UniProt P34972); experiment: CB2 receptor binding affinity (hCB2); settings: stated in introduction, no method or reference given
mCB2 = mCB2 (Mus musculus, UniProt P47936); experiment: CB2 receptor binding affinity (mCB2); settings: stated in introduction, no method or reference given
Chain of mCB2 (P47936 whole entry): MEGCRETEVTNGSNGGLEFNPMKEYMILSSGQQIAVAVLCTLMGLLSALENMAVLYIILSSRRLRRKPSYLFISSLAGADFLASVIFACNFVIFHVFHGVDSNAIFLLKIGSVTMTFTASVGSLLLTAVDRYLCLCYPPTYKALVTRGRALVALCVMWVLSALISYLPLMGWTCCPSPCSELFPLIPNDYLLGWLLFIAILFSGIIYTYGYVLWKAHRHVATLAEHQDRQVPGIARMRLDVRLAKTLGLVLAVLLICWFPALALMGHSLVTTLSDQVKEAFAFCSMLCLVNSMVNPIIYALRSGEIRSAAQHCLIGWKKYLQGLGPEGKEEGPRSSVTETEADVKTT

[1] = Microsomal stability, human liver microsomes; type: in vitro ADME; design: half-life / microsomal CLint: dose or concentration left out as unconfirmed; settings: for half-life: human, liver microsomes, pH 7.4, human liver microsomes, read-out: t1/2 (min) (Mean ± S.D.); for CLint scaled: read-out: CLint (ml/min/kg) (Mean ± S.D.)
Procedure: (§1) AM9338 (50 µM) was incubated at 37 °C with mouse, rat or human microsomes (0.5 mg/ml) in 50 mM potassium phosphate buffer, pH 7.4. Samples were taken immediately after the addition of NADPH (final concentration 1 mM) and again after 30 and 60 min of incubation; the reaction was terminated through protein precipitation with ice cold methanol followed by centrifugation at 4000 g for 10 min. The resulting supernatant was analyzed using LC-MS/MS.
(§2) Chromatographic separation of AM9338 and its metabolites was achieved using a Phenomenex Kinetex F5 column (4.6 × 150 mm, 100 Å pore size, 2.6 μm particle size) on a Thermo Accela HPLC (Thermo, San Jose, CA, USA) coupled to an API-4000 Q-Trap (AB Sciex, Concord, Ontario, Canada). Samples were eluted with mobile phases consisting of 0.1 % formic acid in acetonitrile (A) and 0.1 % formic acid in HPLC grade water (B) starting at 10% A for 2.6 min, ramping to 90%A over the next 9.4 min, and holding at 90%A for 2.8 min before returning to initial conditions for a total run time of 18.5 min; the flow rate was 0.8 ml/min and the autosampler and column oven were set to 4°C and 35°C, respectively. The mass spectrometer was operated in electrospray ionization (ESI) positive ion mode with the following conditions: ion spray voltage = 5,500 V; heater temperature = 550 °C; curtain gas = 20 psi; Q2 collision gas = set as high; source gas 1 (GS1) = 50 psi; source gas 2 (GS2) = 55 psi. High purity nitrogen was used as a source and collision gas and the compounds were detected in the multiple reaction monitoring (MRM) mode.
(§3) The susceptibility of AM9338 to CYP enzymes or hydrolytic enzymes was tested at 37°C in human, mouse and rat liver microsomes, in the presence or absence of NADPH. […] The disappearance of AM9338 in microsomes followed a first-order elimination kinetics with low elimination half-life (t1/2 < 4 min) and high intrinsic microsomal clearance of microsomal protein across all three species as shown in Table 1 .

[2] = Microsomal stability, mouse liver microsomes; type: in vitro ADME; design: microsomal CLint / half-life: dose or concentration left out as unconfirmed; settings: for half-life: mouse, liver microsomes, pH 7.4, mouse liver microsomes, read-out: t1/2 (min) (Mean ± S.D.); for CLint scaled: read-out: CLint (ml/min/kg) (Mean ± S.D.)
Procedure: as §1, §2, §3

[3] = Microsomal stability, rat liver microsomes; type: in vitro ADME; design: microsomal CLint / half-life: dose or concentration left out as unconfirmed; settings: for CLint scaled: read-out: CLint (ml/min/kg) (Mean ± S.D.); for half-life: rat, liver microsomes, pH 7.4, rat liver microsomes, read-out: t1/2 (min) (Mean ± S.D.)
Procedure: as §1, §2, §3

[4] = Non-compartmental pharmacokinetics in mice after i.v. and oral dosing; type: in vivo; settings: for bioavailability: oral 8 mg/kg vs I.V. 2 mg/kg
Procedure: The non-compartmental pharmacokinetic parameters following intravenous (2 mg/kg, i.v.) and oral (8 mg/kg, p.o.) dosing are presented in Table 2 .

[5] = Metabolite profile after incubation with pooled mouse liver microsomes (LC-UV/LC-MS); type: in vitro ADME; settings: NADPH, 37°C, 60 min
Procedure: as §1
Reconstituted extracts from the microsomal incubations were injected on a Supelco Discovery column C18, 250 × 4.6 mm column (Millipore-Sigma, St Louis, MO) on Thermo Accela HPLC system (Thermo Fisher Scientific, Austin, TX). The column temperature was maintained at 35°C, the flow rate was 0.8 ml/min, the injection volume was 20 µl and UV detector was set at 300 nm, maximal absorbance wavelength for AM9338. […]
The metabolites M3 (trihydroxy), M4 (trihydroxy) and M8 (Ketone-hydroxyl) appear to be the metabolic end products of AM9338. […] The estimated relative percentage of each metabolite was calculated using the UV peak areas at the end of the incubation: M1 (49%), M2 (37%), M3 (1%), M4 (5%), M5 (4%), M7 (3%), M8 (1%), and M9 (2%). […] Human (HLM), Mouse (MLM) and rat liver microsomes (RLM) generated the very similar metabolite profile, with M1 and M2 being the major metabolic products, appearing in similar order of formation and relative quantities. […]

CYP3A4 = CYP3A4 (Homo sapiens, UniProt P08684); experiment: CYP phenotyping using CYP specific chemical inhibitors; type: in vitro ADME; settings: preliminary
Chain of CYP3A4 (P08684 whole entry): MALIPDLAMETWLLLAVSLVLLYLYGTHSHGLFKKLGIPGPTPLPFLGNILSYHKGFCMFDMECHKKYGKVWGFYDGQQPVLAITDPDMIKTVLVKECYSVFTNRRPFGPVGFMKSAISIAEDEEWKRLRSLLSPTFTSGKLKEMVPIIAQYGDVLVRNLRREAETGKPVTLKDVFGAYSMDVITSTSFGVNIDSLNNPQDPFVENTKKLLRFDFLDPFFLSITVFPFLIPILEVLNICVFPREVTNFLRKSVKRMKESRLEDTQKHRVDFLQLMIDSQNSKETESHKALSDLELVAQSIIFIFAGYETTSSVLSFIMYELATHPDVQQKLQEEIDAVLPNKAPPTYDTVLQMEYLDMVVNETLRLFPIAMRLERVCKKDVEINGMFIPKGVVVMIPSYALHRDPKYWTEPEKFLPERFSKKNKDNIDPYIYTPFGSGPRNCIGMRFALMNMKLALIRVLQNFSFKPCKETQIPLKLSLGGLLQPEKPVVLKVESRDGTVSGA

[6] = mouse, iv, I.V. 2 mg/kg, plasma
[7] = mouse, plasma, po, 8 mg/kg, oral 8 mg/kg

Chain of hCB2 (P34972 whole entry): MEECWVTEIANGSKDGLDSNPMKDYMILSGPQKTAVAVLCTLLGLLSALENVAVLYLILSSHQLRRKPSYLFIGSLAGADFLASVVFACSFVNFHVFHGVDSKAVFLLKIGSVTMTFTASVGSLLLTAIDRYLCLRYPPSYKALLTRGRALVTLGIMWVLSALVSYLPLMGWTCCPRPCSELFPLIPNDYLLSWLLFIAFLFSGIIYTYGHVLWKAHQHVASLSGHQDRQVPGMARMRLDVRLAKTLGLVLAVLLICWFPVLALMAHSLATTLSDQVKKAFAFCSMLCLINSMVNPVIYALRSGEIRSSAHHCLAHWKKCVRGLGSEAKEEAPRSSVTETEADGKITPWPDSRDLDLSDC

For `O=C(NC12CC3CC(CC(C3)C1)C2)c1nn(CCCn2ccnn2)c2ccccc12` [AM9338, 1-(3-(1H-1,2,3-triazol-1-yl)propyl)-N-(adamantan-1-yl)-1H-indazole-3-carboxamide], the Ki (hCB2) was 3 nM, the Ki (mCB2) was 2.3 nM and the “t1/2 (min) (Mean ± S.D.)” value ([1]; human liver microsomes, 37°C, presence of NADPH) was 3.3 ± 0.6 min. For the same compound, the “Stability in absence of NADPH” value ([1]; human microsomes, 37°C, no NADPH, tested up to 2 h) was “stable”, the half-life ([1]; 37°C, presence of NADPH) was < 4 min and the microsomal CLint ([1]; pH 7.4, human liver microsomes, presence of NADPH, read-out: CLint (µl/min/mg) (Mean ± S.D.)) was 420 ± 93 µL/min/mg. For the same compound, the “Stability in absence of NADPH” value ([2]; mouse microsomes, 37°C, no NADPH, tested up to 2 h) was “stable”, the microsomal CLint ([2]; pH 7.4, mouse liver microsomes, presence of NADPH, read-out: CLint (µl/min/mg) (Mean ± S.D.)) was 2950 ± 282 µL/min/mg and the microsomal CLint ([3]; pH 7.4, rat liver microsomes, presence of NADPH, read-out: CLint (µl/min/mg) (Mean ± S.D.)) was 830 ± 136 µL/min/mg. For the same compound, the “Stability in absence of NADPH” value ([3]; rat microsomes, 37°C, no NADPH, tested up to 2 h) was “stable”, the “Systemic plasma clearance as share of hepatic blood flow” value ([4]; I.V. 2 mg/kg) was 85 % of hepatic blood flow and the t1/2 ([4]; I.V. 2 mg/kg, terminal half-life, 2 mg/kg) was 16.1 min. It also gave an AUC [4, 6] of 438 ng·h/mL, a C0 [4, 6] of 2110 ng/mL and a clearance [4, 6] of 75.9 mL/min/kg. For the same compound, the AUC ([4]; mouse, oral 8 mg/kg, plasma) was 267 ng·h/mL, the half-life ([4]; mouse, plasma, iv, 2 mg/kg, I.V. 2 mg/kg, terminal half-life) was 16 min and the Vd ([4]; mouse, plasma, iv, I.V. 2 mg/kg, read-out: Vd) was 1.76 L/kg. It also gave a Tmax ([4]; mouse, plasma, oral 8 mg/kg) of 1 h, a bioavailability ([4]; mouse, plasma, oral, 8 mg/kg, read-out: Bioavailability) of ~15% and a Cmax [4, 7] of 240 ng/mL. It also gave a half-life [4, 7] of 113 min, a CL ([4]; oral 8 mg/kg) of 489 mL/min/kg and a Vd ([4]; oral 8 mg/kg) of 79.9 L/kg. The bioavailability [4] was 15.5%, the “Cmax (Oral)” value ([4]; oral 8 mg/kg, plasma, 8 mg/kg) was 0.239 ± 0.230 µg/mL and the “Extent of metabolism of parent” value [5] was “almost completely metabolized”. The “Major CYP isoform responsible for the adamantyl oxidations” value (CYP3A4) was “CYP3A4”.

With `O=C(NC12CC3CC(C1)C(O)C(C3)C2)c1nn(CCCn2ccnn2)c2ccccc12` (stereo not shown) [M1] the half-life ([1]; 37°C, presence of NADPH) was 13.1 ± 2.48 min, the CLint scaled ([1]; pH 7.4, human liver microsomes) was 121 ± 20 mL/min/kg and the half-life ([2]; 37°C, presence of NADPH) was 2.02 ± 0.11 min. It also gave a CLint scaled ([2]; pH 7.4, mouse liver microsomes) of 2730 ± 223 mL/min/kg, a CLint scaled ([3]; pH 7.4, rat liver microsomes) of 565 ± 4.4 mL/min/kg and a half-life ([3]; 37°C, presence of NADPH) of 4.41 ± 0.31 min.

For `O=C(NC12CC3CC(C1)C(O)C(C2)C3O)c1nn(CCCn2ccnn2)c2ccccc12` (stereo not shown) [M2], the half-life ([1]; 37°C, presence of NADPH) was 30.8 ± 6.7 min, the CLint scaled ([1]; pH 7.4, human liver microsomes) was 54 ± 4 mL/min/kg and the half-life ([2]; 37°C, presence of NADPH) was 10.5 ± 0.64 min. It also gave a CLint scaled ([2]; pH 7.4, mouse liver microsomes) of 520 ± 54 mL/min/kg, a CLint scaled ([3]; pH 7.4, rat liver microsomes) of 93 ± 10 mL/min/kg and a half-life ([3]; 37°C, presence of NADPH) of 26.8 ± 6.6 min.
